# Experimental data reported in patent publication US20250221957A1, “PS[…] AND THEIR USE FOR TREATING […] AND NE[…] DISORDERS” (Transcend Therapeutics, Inc., priority 2021, published 2025).
# Tests used:
# [1] = test system: Sprague Dawley rats; experiment: Forced Swim Test (FST); format: in vivo, rat; details: for reduction in immobility compared to saline vehicle: single dose 30 min prior to testing (Example 6)
# Source text: The Forced Swim Test (FST) is a classic, and the most used preclinical behavioral assay to screen compounds with antidepressant-like activity and has high predictive and face validity (Porsolt et al. (1977) Nature 266:730; Borsini and Meli (1988) Psychopharmacology 94:147). The premise of the FST is that when rats are placed into a cylinder filled with water, they will initially try to escape, but over time will become immobile. This increased immobility reflects behavioral despair, modeling a depressive-like state.
# Animals: Male Sprague Dawley rats (Charles River Laboratories) weighing 180-200 g on arrival, were used for this study which took place at Melior Discovery (Exton, PA). Rats acclimated to their home cages for at least one week before testing, were maintained in a controlled environment on a 12 h light/dark cycle, with no more than 2 rats per cage. Animals received ad libitum access to food and water and were assigned randomly to treatment groups. Animal use and procedures were in accordance with established protocols approved by the IACUC committee, Melior Standard Operation Procedures (SOP), and Transcend Therapeutics.
# Forced Swim Test (FST): In the FST trial, rats were be placed in a circular plexiglass container filled with water, with no means of escape. Water temperature was maintained at 22-25° C. and changed for every animal. After an acclimation period, rats were timed for inactivity (failure to struggle), activity, swim time and climbing time. Day 1 consisted of a 15 min acclimation trial, and Day 2 (24 h later) consisted of the 5 min test. A time sampling procedure was employed where animals were observed every 5 sec and scored for immobility, swimming, or climbing. Fluoxetine (10 mg/kg, IP, Sigma Aldrich) or 0.9% sterile saline vehicle (vehicle 3× group) were administered 23.5, 5, and 1 h before testing in the FST. […] The experimenter was blinded to treatment.
# Statistical Analysis: Data for each parameter of the test (immobility, swimming, or climbing) is expressed as the mean±SEM. Differences between groups were determined by one-way ANOVA and post-hoc Tukey's test with a p-value of less than 0.05 indicating statistically significant differences.
# Forced Swim Test: In the FST trial, rats were be placed in a circular plexiglass container filled with water, with no means of escape. Water temperature was maintained at 22-25° C. and changed for every animal. After an acclimation period, rats were timed for inactivity (failure to struggle), activity, swim time and climbing time. Day 1 consisted of a 15 min acclimation trial, and Day 2 (24 h later) consisted of the 5 min test. A time sampling procedure was employed where animals were observed every 5 sec and scored for immobility, swimming, or climbing. Fluoxetine (10 mg/kg, IP, Sigma Aldrich) or 0.9% sterile saline vehicle (vehicle 3× group) were administered 23.5, 5, and 1 h before testing in the FST. 2C-B (2.5, 10, or 20 mg/kg, IP, Cayman Chemical) or 0.9% saline vehicle (vehicle 1× group) were administered 30 min prior to FST testing. The experimenter was blinded to treatment.
# Drug Treatment: Fluoxetine (10 mg/kg, IP, Sigma Aldrich) or 0.9% sterile saline vehicle were administered 23.5, 5, and 1 h before testing in the FST. […] Control animals received fluoxetine alone, methylone alone, or saline vehicle.
# Forced Swim Test: In the FST trial, rats were be placed in a circular plexiglass container filled with water, with no means of escape. Water temperature was maintained at 22-25° C. and changed for every animal. After an acclimation period, rats were timed for inactivity (failure to struggle), activity, swim time and climbing time. The experimenter and scorer were blind to treatment group. Day 1 consisted of a 15 min acclimation trial, and Day 2 (24 h later) consisted of the 5 min test. A time sampling procedure was employed where animals were observed every 5 sec and scored for immobility, swimming, or climbing. […]
# [2] = target: vesicular monoamine transporter 2 (VMAT2) (Homo sapiens, UniProt Q05940); details: cited from earlier work
# [3] = test system: mice; experiment: Fear extinction paradigm, mouse model of PTSD; format: in vivo
# Source text: (FIG. 9A) Schematic of experimental design. A single CS-US (tone-shock) pairing on day 1 was followed by 6 CS presentations in a novel context (context B). […] On day 3, the time spent freezing to the CS was quantified. […] (FIG. 9C) No locomotor changes were observed on day 3 (t(26)=1.073, p>0.05). Data are mean +/− SEM.
# FIGS. 10A-10B: MBDB improves fear extinction in a mouse model of PTSD. A single CS-US (tone-shock) pairing on day 1 was followed by 6 conditioned stimulus (CS) presentations in a novel context (context B). MBDB or saline vehicle was injected 30 min prior to extinction training on day 2. The time spent freezing to the CS was quantified on […]. […] Data are mean +/− SEM. N=10 for MBDB group (5 mg/kg, IP) and N=16 for saline control group. **p<0.01 vs. vehicle control group.
# Effective PTSD treatments facilitate the disassociation between a traumatic memory and the patient's fear response, making cues for the traumatic memory evoke less of a fear response. This is modeled in the mouse fear extinction paradigm (see FIG. 9A) which takes place over 3 days. On day 1 (fear conditioning), mice are trained to acquire a “traumatic memory,” namely associating the conditioned stimulus (CS, tone) to the unconditioned stimulus (US, foot shock). On day 2 (extinction training), they are trained to forget the traumatic memory association by presenting the CS 6 times (with no US) in a novel environment. On day 3 (extinction recall), the mice are “asked” if that tone (CS) still elicits a fearful response, as measured by the time spent freezing when the tone is presented. Less time freezing means better extinction recall. Drugs that improve extinction recall reduce freezing time on day 3, and, therefore, show potential as a PTSD treatment.
# [4] = test system: drug users / humans; details: methylone 50 mg in humans (Poyatos 2022); cited from earlier work
# Sequence of vesicular monoamine transporter 2 (VMAT2) (Q05940 whole entry, species assumed): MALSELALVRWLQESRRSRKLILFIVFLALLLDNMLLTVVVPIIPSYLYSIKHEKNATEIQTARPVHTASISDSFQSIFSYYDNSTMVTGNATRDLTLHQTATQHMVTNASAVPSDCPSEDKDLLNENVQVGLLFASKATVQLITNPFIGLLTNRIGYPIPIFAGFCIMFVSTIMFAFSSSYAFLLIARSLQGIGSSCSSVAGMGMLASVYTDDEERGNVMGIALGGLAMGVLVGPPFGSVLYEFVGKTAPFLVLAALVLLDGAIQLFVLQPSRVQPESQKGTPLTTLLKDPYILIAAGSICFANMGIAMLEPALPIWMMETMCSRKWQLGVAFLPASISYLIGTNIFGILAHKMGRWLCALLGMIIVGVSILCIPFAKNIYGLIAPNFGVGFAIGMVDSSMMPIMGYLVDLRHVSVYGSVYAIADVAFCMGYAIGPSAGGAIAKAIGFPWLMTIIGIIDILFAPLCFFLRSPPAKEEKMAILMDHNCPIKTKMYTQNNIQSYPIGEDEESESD
smiles,measurement,setting,value
"CNC(C)C(=O)c1ccc2c(c1)OCO2 (stereo not drawn) [methylone, 3,4-methylenedioxy-N-methylcathinone]",climbing behavior,[1]; Example 8,significantly increased climbing behavior
same,reduced immobility compared to vehicle,"[1]; Methylone alone, 5 mg/kg IP (Example 8)",71%
same,reduced immobility compared to vehicle,[1]; combined treatment: fluoxetine x3 plus Methylone 15 mg/kg IP (Example 8),95%
same,reduction in immobility compared to saline vehicle,[1]; methylone 5 mg/kg IP,54%
same,reduction in immobility compared to saline vehicle,[1]; methylone 15 mg/kg IP,99%
same,reduction in immobility compared to saline vehicle,[1]; methylone 30 mg/kg IP,96%
same,climbing,"[1]; methylone 5, 15, 30 mg/kg IP, Example 6",only increased at the lowest dose
same,swimming,"[1]; methylone mid and high doses (15, 30 mg/kg IP), Example 6",significantly increased swimming
same,reduced immobility vs. vehicle,[1]; single dose of Methylone (5 mg/kg IP) after three prior doses of fluoxetine 10 mg/kg IP (Example 8),62%
same,immobility time,[1]; single doses of 10 and 15 mg/kg methylone IP (Example 11),reducing immobility time significantly
same,immobility,[1]; two or three 5 mg/kg doses IP (Example 11),significantly reduce immobility
same,affinity for VMAT2 lower than that of MDMA,[2],about 13 ×
same,enhancement of fear extinction recall compared to saline controls (reduced freezing on day 3),[3]; methylone 30 mg/kg IP 30 min prior to extinction training,~60%
same,locomotion during the testing session,"[3]; methylone 30 mg/kg IP, day 3",no differences between groups
same,side effects,[4],no detectable side effects
